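A five-concentration, 48-hour dose response in 96-well plates underlies each endpoint, interpolated linearly between surrounding concentrations. GI50 marks 50% less growth.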 Calls of active or inactive are those of the source. Rule as the data show it: active = GI50 up to about 1.1 µM and inactive = higher. Square brackets hold non-standard residues; d marks the D form. Peptide text beside a SMILES is read from it. * marks the point of attachment. Boc = CC(C)(C)OC(=O)*; Lac = C[CH](O)C(=O)O; OBn = c1ccc(CO*)cc1
How the values were obtained:
Experiment in all cases: growth of human tumour cells (NCI), 48 h
[1] = tested on: DLD-1
[2] = tested on: KM-20L2
[3] = tested on: XF498
[4] = tested on: MDA-MB-435
[5] = tested on: MDA-N
[6] = tested on: 786-0
[7] = tested on: M19-MEL
[8] = tested on: SNB-78
[9] = tested on: RXF 631

In the case of `CC1CC2=C(S(=O)(=O)c3ccccc3)CC(S(=O)(=O)c3ccccc3)(S(=O)(=O)c3ccccc3)CC21` (stereo not drawn), the GI50 [1] is reported as > 100 µM (inactive), the GI50 [2] is reported as > 100 µM (inactive) and the GI50 [3] is reported as > 100 µM (inactive).

`COP(=O)(OC)C(N)Cc1c[nH]c2ccccc12` (stereo not drawn) was tested, and the GI50 [4] was > 100 µM (inactive) and the GI50 [5] was > 100 µM (inactive).

In the case of `CC(OC(=O)C(Cc1ccccc1)NC(=O)C(Cc1ccccc1)NC(=O)OC(C)(C)C)C(=O)OCc1ccccc1` (stereo not drawn) (Boc-Phe-Phe-[Lac]-OBn; configuration not given here), the GI50 [4] is reported as > 100 µM (inactive) and the GI50 [5] is reported as > 100 µM (inactive).

With `Nc1ccccc1C(=O)N/N=C1\C(=O)Nc2ccccc21` the GI50 [4] was > 100 µM (inactive), the GI50 [5] was > 100 µM (inactive) and the GI50 [6] was 37.6 µM (inactive).

In the case of `O=C1Nc2ccc(Cl)cc2/C1=C\c1c(Cl)nc2sccn12`, the GI50 [4] is reported as 0.787 µM (active) and the GI50 [5] is reported as 1.91 µM (inactive).

With `COc1cc2cc(C(=O)N3CC(CCl)c4ccc(NO)cc43)[nH]c2c(OC)c1OC` (stereo not drawn) the GI50 [4] was 0.216 µM (active), the GI50 [5] was 0.249 µM (active) and the GI50 [6] was 0.287 µM (active).

With `COC(=O)C(F)C(Br)C(=O)OC` (stereo not drawn) the GI50 [4] was 8.38 µM (inactive), the GI50 [5] was 8.51 µM (inactive) and the GI50 [6] was 2.52 µM (inactive).

For `CCC(=O)NC(Nc1cccc(F)c1)(C(F)(F)F)C(F)(F)F`, the GI50 [4] was > 100 µM (inactive) and the GI50 [5] was > 100 µM (inactive).

For `CC1CC(C[N+](=O)[O-])CC2(C1)OCCO2` (stereo not drawn), the GI50 [7] was > 100 µM (inactive), the GI50 [1] was > 100 µM (inactive) and the GI50 [2] was > 100 µM (inactive). For the same compound, the GI50 [6] was > 100 µM (inactive) and the GI50 [8] was > 100 µM (inactive).

With `C[C@H]1S[C@@H](c2ccc(Cl)cc2Cl)N(NC(=O)c2ccncc2)C1=O` the GI50 [4] was 43.6 µM (inactive) and the GI50 [5] was > 10 µM (inactive).

With `O=C1NC(O)CCN1C1OC(CO)C(O)C1O` (stereo not drawn) the GI50 [7] was > 213 µM (inactive), the GI50 [1] was > 250 µM (inactive) and the GI50 [2] was > 68.7 µM (inactive). The GI50 [3] was > 250 µM (inactive) and the GI50 [8] was > 250 µM (inactive).

`CC/C=C\C/C=C\C/C=C\CCCCCCCC(=O)OC` [METHYL LINOLENATE] was tested, and the GI50 [7] was > 100 µM (inactive), the GI50 [1] was > 100 µM (inactive) and the GI50 [3] was > 100 µM (inactive).

`OC1CCOc2ccccc21` (stereo not drawn) was tested, and the GI50 [7] was > 100 µM (inactive), the GI50 [1] was > 100 µM (inactive) and the GI50 [2] was > 100 µM (inactive). The GI50 [3] was > 100 µM (inactive).

With `COc1ccc(C(=O)NNC(=O)c2nsc3ccccc23)cc1` the GI50 [7] was > 100 µM (inactive), the GI50 [2] was 35.9 µM (inactive) and the GI50 [8] was > 100 µM (inactive).

For `O=C1CSC(/C=C/c2ccccc2)N1c1nc2cc3sc(N4C(=O)CSC4/C=C/c4ccccc4)nc3cc2s1` (stereo not drawn), the GI50 [4] was > 65.6 µM (inactive), the GI50 [5] was > 44.8 µM (inactive) and the GI50 [6] was > 58.9 µM (inactive).

With `COc1cc(/C=C2\N=C(c3ccccc3)N(C3Nc4cc5c(cc4S3)NC(N3C(=O)/C(=C/c4cc(OC)c(OC)c(OC)c4)N=C3c3ccccc3)S5)C2=O)cc(OC)c1OC` (stereo not drawn) the GI50 [4] was > 100 µM (inactive), the GI50 [5] was 74.3 µM (inactive) and the GI50 [6] was 61.1 µM (inactive).

With `Cc1ccc(C2CC(c3cccc([N+](=O)[O-])c3)=Nc3ccccc3S2)cc1` (stereo not drawn) the GI50 [7] was 40.4 µM (inactive), the GI50 [1] was 20 µM (inactive) and the GI50 [2] was 44.5 µM (inactive). For the same compound, the GI50 [9] was > 93.8 µM (inactive), the GI50 [6] was 21.8 µM (inactive) and the GI50 [3] was 21.4 µM (inactive). The GI50 [8] was 23.2 µM (inactive).

`Cc1n[nH]c(CC#N)n1` was tested, and the GI50 [4] was > 100 µM (inactive), the GI50 [5] was > 100 µM (inactive) and the GI50 [6] was > 100 µM (inactive).

With `O=C(OCCOC(=O)c1ccc2c(c1)C1(SCCS1)c1ccccc1-2)c1ccc2c(c1)C1(SCCS1)c1ccccc1-2` the GI50 [7] was > 100 µM (inactive), the GI50 [1] was > 100 µM (inactive) and the GI50 [2] was > 100 µM (inactive). The GI50 [8] was > 100 µM (inactive).

With `CCOC(=O)C1CCn2c(nc3c2c(=O)n(C)c(=O)n3C)S1` (stereo not drawn) the GI50 [1] was > 100 µM (inactive), the GI50 [2] was > 100 µM (inactive) and the GI50 [8] was > 100 µM (inactive).

In the case of `Cc1cc(=O)oc2c1cc1ccc3cccc4ccc2c1c34`, the GI50 [7] is reported as > 100 µM (inactive), the GI50 [1] is reported as > 100 µM (inactive) and the GI50 [2] is reported as > 100 µM (inactive). For the same compound, the GI50 [8] was 83 µM (inactive).

`Cn1c(=O)c(C#N)c(O)c2cc3ccccc3nc21` was tested, and the GI50 [7] was > 100 µM (inactive), the GI50 [1] was > 100 µM (inactive) and the GI50 [3] was > 100 µM (inactive). The GI50 [8] was > 100 µM (inactive).

— ChEMBL document CHEMBL1201862, “PubChem BioAssay data set” (2004)
